Experimental data from patent publication US20240317792A1, “CYCLIC DINUCLEOTIDE METAL COMPOUND, AND PREPARATION AND APPLICATION THEREOF” (HANGZHOU XINGAO BIOTECHNOLOGY CO., LTD., priority 2022, published 2024).

test system: mouse colorectal cancer cell line CT26; assay: Subcutaneously transplanted CT26 tumor growth inhibition; format: in vivo, BALB/c ordinary mice; conditions: CT26 in BALB/c mice; 10 mg/kg intraperitoneal once every 2 days for 20 days
Description: Experimental animals: BALB/c ordinary mice and C57BL/6 ordinary mice, male, weighing 20-22 grams, 7-8 weeks old, purchased from Shanghai SLAC Laboratory Animal Co. Ltd.
Tumour cell line: mouse colorectal cancer cell line CT26 and mouse breast cancer cell line 4T1, both purchased from Chinese Academy of Sciences Cell Bank.
Establishment and intervention of tumor model mice: cells were subjected to culture and subculture, collected in a logarithmic phase and prepared as 1.0×10^7/mL of cell suspension. 0.2 mL of the cell suspension was injected armpits of forelegs of the mice (with a cell number of 2.0×10^6), and tumor transplantation was successful in about 7 days. Mice with successful tumor transplantation were randomly divided into 7 groups (10 mice in each group). The 7 groups were listed as follows: A: negative control group (injection with normal saline); B: positive control cGAMP group (10 mg/kg of injection); C: [Li2(cGAMP)] group (10 mg/kg of injection); D: [Mg(cGAMP)] group (10 mg/kg of injection); E: [Zn(cGAMP)] group (10 mg/kg of injection); F: [Mn(cGAMP)] group (10 mg/kg of injection); and G: [Fe(cGAMP)] group (10 mg/kg of injection). The mice with successful tumor transplantation were subjected to administration by intraperitoneal injection with a volume of 200 μL per mice once every 2 days for 20 days. After 20 days, the mice with successful tumor transplantation were killed, and the tumor were weighed. A formula of inhibitory rate of tumor was as represented as inhibitory rate of tumor=[1−average tumor weight of experimental group/average tumor weight of the negative control group]×100%.
According to the establishment of tumor model mice, the mouse colorectal cancer cell line CT26 was cultured and transplanted to the BALB/c ordinary mice, and the mouse breast cancer cell line 4T1 was cultured and transplanted to the BALB/c ordinary mice.
Statistical analysis: data was expressed as mean±standard deviation and processed by the SPSS10.0 software. One-way ANOVA was used to detect and compare significance of tumor weights in each group.

SMILES | Average inhibitory rate of the tumor [%] | Average tumor weight [g]
Nc1nc2c(ncn2C2OC3COP(=O)([O-])OC4C(COP(=O)([O-])OC2C3O)OC(n2cnc3c(N)ncnc32)C4O)c(=O)[nH]1.[Fe+2] (stereo not drawn) [[Fe(cGAMP)], ferrous cyclic dinucleotide] | 83.5 | 0.301 ± 0.112
Nc1nc2c(ncn2[C@@H]2O[C@@H]3COP(=O)([O-])O[C@H]4[C@@H](O)[C@H](n5cnc6c(N)ncnc65)O[C@@H]4COP(=O)([O-])O[C@@H]2[C@@H]3O)c(=O)[nH]1.[Li+].[Li+] [[Li2(cGAMP)], lithium cyclic dinucleotide] | 63.0 | 0.675 ± 0.163
Nc1nc2c(ncn2[C@@H]2O[C@@H]3COP(=O)([O-])O[C@H]4[C@@H](O)[C@H](n5cnc6c(N)ncnc65)O[C@@H]4COP(=O)([O-])O[C@@H]2[C@@H]3O)c(=O)[nH]1.[Mg+2] [[Mg(cGAMP)], magnesium cyclic dinucleotide] | 65.2 | 0.635 ± 0.178
Nc1nc2c(ncn2C2OC3COP(=O)([O-])OC4C(COP(=O)([O-])OC2C3O)OC(n2cnc3c(N)ncnc32)C4O)c(=O)[nH]1.[Mn+2] (stereo not drawn) [[Mn(cGAMP)], manganese cyclic dinucleotide] | 85.8 | 0.258 ± 0.105
Nc1nc2c(ncn2[C@@H]2O[C@@H]3COP(=O)([O-])O[C@H]4[C@@H](O)[C@H](n5cnc6c(N)ncnc65)O[C@@H]4COP(=O)([O-])O[C@@H]2[C@@H]3O)c(=O)[nH]1.[Zn+2] [[Zn(cGAMP)], zinc cyclic dinucleotide] | 88.9 | 0.201 ± 0.123
Nc1nc2c(ncn2[C@@H]2O[C@@H]3COP(=O)(O)O[C@H]4[C@@H](O)[C@H](n5cnc6c(N)ncnc65)O[C@@H]4COP(=O)(O)O[C@@H]2[C@@H]3O)c(=O)[nH]1 [cGAMP, 2′3′-cGAMP, reference compound] | 61.0 | 0.712 ± 0.145
